Source: the NIST ThermoML archive (doi:10.1016/j.jct.2008.10.010)

Assay: molar heat capacity at constant pressure; xn = mol fraction of the nth substance listed
Settings: 101.3 kPa, Liquid, Small sample (50 mg) DSC

CCC(C)(C)O [2-methylbutan-2-ol] + CCCCCCC
Settings	molar heat capacity at constant pressure [J/K/mol]
318.15 K, x1 = 0.4051	268.55
318.15 K, x1 = 0.4986	270.68
318.15 K, x1 = 0.5981	271.65
318.15 K, x1 = 0.7015	272.08
318.15 K, x1 = 0.8023	271.36
318.15 K, x1 = 0.9139	270.14
318.15 K, x1 = 0.9609	269.17
319.15 K, x1 = 0.0061	232.58
319.15 K, x1 = 0.0494	240.63
319.15 K, x1 = 0.1	249.49
319.15 K, x1 = 0.1547	255.72
319.15 K, x1 = 0.1999	259.62
319.15 K, x1 = 0.2993	265.58
319.15 K, x1 = 0.4051	269.3
319.15 K, x1 = 0.4986	271.51
319.15 K, x1 = 0.5981	272.56
319.15 K, x1 = 0.7015	273.04
319.15 K, x1 = 0.8023	272.38
319.15 K, x1 = 0.9609	270.15
319.16 K, x1 = 0.0249	235.12
319.16 K, x1 = 0.9139	271.16
320.14 K, x1 = 0.0061	232.92
320.14 K, x1 = 0.0249	235.28
320.14 K, x1 = 0.0494	240.72
320.14 K, x1 = 0.1	249.68
320.14 K, x1 = 0.1547	255.93
320.14 K, x1 = 0.1999	260.03
320.14 K, x1 = 0.2993	266.13
320.14 K, x1 = 0.4051	269.96
320.14 K, x1 = 0.4986	272.22
320.14 K, x1 = 0.5981	273.33
320.14 K, x1 = 0.7015	273.87
320.14 K, x1 = 0.8023	273.27
320.14 K, x1 = 0.9139	272.09
320.14 K, x1 = 0.9609	270.99
321.15 K, x1 = 0.0061	233.36
321.15 K, x1 = 0.0249	235.64
321.15 K, x1 = 0.0494	240.94
321.15 K, x1 = 0.1	249.94
321.15 K, x1 = 0.1547	256.42
321.15 K, x1 = 0.1999	260.55
321.15 K, x1 = 0.2993	266.78
321.15 K, x1 = 0.4051	270.74
321.15 K, x1 = 0.4986	273.12
321.15 K, x1 = 0.5981	274.26
321.15 K, x1 = 0.7015	274.94
321.15 K, x1 = 0.8023	274.3
321.15 K, x1 = 0.9139	273.21
321.15 K, x1 = 0.9609	272.08
322.15 K, x1 = 0.0061	233.83
322.15 K, x1 = 0.0249	235.95
322.15 K, x1 = 0.0494	241.13
322.15 K, x1 = 0.1	250.19
322.15 K, x1 = 0.1547	256.8
322.15 K, x1 = 0.1999	261.03
322.15 K, x1 = 0.2993	267.36
322.15 K, x1 = 0.4051	271.46
322.15 K, x1 = 0.4986	273.9
322.15 K, x1 = 0.5981	275.18
322.15 K, x1 = 0.7015	275.82
322.15 K, x1 = 0.8023	275.19
322.15 K, x1 = 0.9139	274.13
322.15 K, x1 = 0.9609	272.97
323.14 K, x1 = 0.0061	234.21
323.14 K, x1 = 0.0249	236.15
323.14 K, x1 = 0.0494	241.26
323.14 K, x1 = 0.1	250.37
323.14 K, x1 = 0.1547	257.15
323.14 K, x1 = 0.1999	261.38
323.14 K, x1 = 0.2993	267.94
323.14 K, x1 = 0.4051	272.09
323.14 K, x1 = 0.4986	274.67
323.14 K, x1 = 0.5981	275.95
323.14 K, x1 = 0.7015	276.7
323.14 K, x1 = 0.8023	276.15
323.14 K, x1 = 0.9139	275.08
323.14 K, x1 = 0.9609	273.92
324.15 K, x1 = 0.0061	234.52
324.15 K, x1 = 0.0249	236.43
324.15 K, x1 = 0.0494	241.45
324.15 K, x1 = 0.1	250.6
324.15 K, x1 = 0.1547	257.46
324.15 K, x1 = 0.1999	261.78
324.15 K, x1 = 0.2993	268.5
324.15 K, x1 = 0.4051	272.8
324.15 K, x1 = 0.4986	275.41
324.15 K, x1 = 0.5981	276.79
324.15 K, x1 = 0.7015	277.57
324.15 K, x1 = 0.8023	277.05
324.15 K, x1 = 0.9139	275.96
324.15 K, x1 = 0.9609	274.86
325.15 K, x1 = 0.0061	234.92
325.15 K, x1 = 0.0249	236.8
325.15 K, x1 = 0.0494	241.6
325.15 K, x1 = 0.1	250.76
325.15 K, x1 = 0.1547	257.7
325.15 K, x1 = 0.1999	262.12
325.15 K, x1 = 0.2993	269.04
325.15 K, x1 = 0.4051	273.4
325.15 K, x1 = 0.4986	276.1
325.15 K, x1 = 0.5981	277.56
325.15 K, x1 = 0.7015	278.38
325.15 K, x1 = 0.8023	277.92
325.15 K, x1 = 0.9139	276.88
325.15 K, x1 = 0.9609	275.71
326.14 K, x1 = 0.0061	235.39
326.14 K, x1 = 0.0249	237.1
326.14 K, x1 = 0.0494	241.8
326.14 K, x1 = 0.1	250.96
326.14 K, x1 = 0.1547	258.02
326.14 K, x1 = 0.1999	262.54
326.14 K, x1 = 0.2993	269.54
326.14 K, x1 = 0.4051	274.06
326.14 K, x1 = 0.4986	276.85
326.14 K, x1 = 0.5981	278.41
326.14 K, x1 = 0.7015	279.29
326.14 K, x1 = 0.8023	278.83
326.14 K, x1 = 0.9139	277.8
326.14 K, x1 = 0.9609	276.69
327.14 K, x1 = 0.1999	262.84
327.15 K, x1 = 0.0061	235.69
327.15 K, x1 = 0.0249	237.39
327.15 K, x1 = 0.0494	241.94
327.15 K, x1 = 0.1	251.07
